Converted amounts (≈) assume the structure as drawn. Read-outs that look alike come from different tables or passages of the source. Where a SMILES comes first, the peptide text is derived from it. Where no end group is shown, it is not given here.
How the values were obtained:
physchem = type: physicochemical
Procedure: The tests were carried out in three of the most common solvents used in biological applications such as: ultrapure water; DPBS (Dulbecco's Phosphate Buffered Saline), i.e., a saline buffer containing potassium chloride (KCl), monobasic potassium phosphate (KH2PO4), sodium chloride (NaCl) and dibasic sodium phosphate (Na2HPO4-7H2O) and finally in an organic solvent such as dimethylsulfoxide (DMSO).

S. aureus = type: cell-based, Staphylococcus aureus
Procedure: (§1) The evaluation of the Minimum Bactericidal Concentration (MBC), i.e., the lowest concentration of antimicrobial agent capable of 99.9% inhibition of bacterial growth on plates, was carried out as described in Bílikova et al, (2015, Peptides 68:190-196). […] It should be noted that the peptide object of the present invention is more powerful and efficient than the peptide IDR-1018-K6 (described in patent application WO2019012158) against the pathogenic bacteria L. monocytogenes and S. typhimurium, with bactericidal concentration values 4-fold and 7-fold lower, respectively, compared to those shown by IDR-1018-K6.

[1] = type: physicochemical
Procedure: The structural and conformational characterization of the RiLK1 peptide was assessed by investigating its secondary structure by ^1H NMR spectroscopy in H2O and in a micellar solution of SDS at a concentration of 150 mM to mimic the condition of the bacterial cell membrane.
In fact, the representative structures of the RiLK1 peptide in water show a random orientation of both polar and hydrophobic amino acid side chains.
The helical structure appears well defined and stabilized by hydrophobic interactions of amino acid residues located on the opposite face. It is important to note that, in this arrangement, all the charged side chains are iso-oriented and well prone to interact with the negatively charged surface of the SDS micelles. Furthermore, the two tryptophan residues within the RiLK1 sequence are located at an optimal distance for their mutual stacking, thus contributing to the stabilization of the helix. It should be pointed out that the ^1H NMR spectra of the peptide IDR-1018-K6 (described in patent application WO2019012158) could not be acquired in the presence of micellar solutions of SDS since it is not soluble at the concentrations required to carry out these assays. […] Therefore, it is possible to assert that the NMR analysis in the presence of SDS has shown that the RiLK1 peptide of the present invention is capable of adopting the helix conformation, whereas the IDR-1018-K6 peptide (object of patent WO2019012158) has poor solubility and a heterogeneous system not suitable for NMR structural characterization (Table 2).

L. monocytogenes (LM2) = type: cell-based, Listeria monocytogenes; conditions: LM2
Procedure: as §1

[2] = system: Candida albicans (ATCC 14053); experiment: activity against yeast, plate count, MFC; type: cell-based; conditions: C. albicans
Procedure: The inhibitory activity of the RiLK1 peptide was determined against the yeast Candida albicans. A stock culture was prepared in which 10^5 CFUs of C. albicans were inoculated in 10 ml of buffered peptone water. A reference strain (ATCC 14053) was used for this species. The culture was incubated for 6 h at 37° C. with the RiLK1 peptide at 25 μM concentrations. At the same time, control samples were incubated without adding the peptide. 100 μl of the samples thus prepared were seeded on DG18 plates (Dichloran 18% Glycerol Agar-ISO 21527-2) and incubated at 25° C. for 7 days. All experimental conditions investigated used the plate count method to estimate the antimycotic activity of the peptide. Specifically, the numbers of colonies grown on agar plates seeded with the cultures in the absence or presence of the individual peptide dilutions were counted and compared. The standard deviations of the triplicate incubations of each plate were determined using statistical software. The evaluation of the Minimum Fungicidal Concentration (MFC), i.e., the lowest concentration of antifungal agent capable of 99.9% inhibition of fungal growth on plates, was carried out as described in Bílikova et al, (2015, Peptides 68:190-196).

S. typhimurium = type: cell-based, Salmonella typhimurium
Procedure: as §1

E. coli = type: cell-based, Escherichia coli
Procedure: as §1

[3] = system: Aspergillus brasiliensis (ATCC 9341); experiment: antifungal activity, plate count, MFC; type: cell-based; conditions: A. brasiliensis
Procedure: The antifungal activity of the RiLK1 peptide was determined against Aspergillus brasiliensis. For this purpose, a stock culture was prepared in which 10^5 CFUs of A. brasiliensis were inoculated in 10 ml of buffered peptone water. A reference strain (ATCC 9341) was used for this fungal species. The culture was incubated for 6 h at 37° C. with the RiLK1 peptide at 25 μM concentrations. At the same time, control samples were incubated without adding the peptide. 100 μl of the samples thus prepared were seeded on DG18 plates (Dichloran 18% Glycerol Agar-ISO 21527-2) and incubated at 25° C. for 7 days. All experimental conditions investigated used the plate count method to estimate the fungicidal activity of the peptide. Specifically, the numbers of colonies grown on agar plates seeded with the fungal suspensions in the absence or presence of the individual peptide dilutions were counted and compared. The standard deviations of the triplicate incubations of each plate were determined using statistical software. The evaluation of the Minimum Fungicidal Concentration (MFC), i.e., the lowest concentration of antifungal agent capable of 99.9% inhibition of fungal growth on plates, was carried out as described in Bílikova et al, (2015, Peptides 68:190-196).

Compound | Outcome (physchem) | Solubility limit (physchem) [µg/mL] | solubility (physchem; Solubility limit) [µg/mL] | Outcome (physchem; pH 7.1) | solubility (physchem; pH 7.1, Solubility limit) [µg/mL] | also measured
VRLIVKVRIWRR-NH2 (C-terminus assumed) [IDR-1018-K6(L)] | Dissolved | 10000 | 5000 | Dissolved | 5000 | –
RLKWVRIWRR-NH2 [RiLK1(L), RLKWVRIWRR] | Dissolved | 10000 | 10000 | Dissolved | 10000 | –
CC[C@@H](C)[C@@H](NC(=O)[C@@H](CCCNC(=N)N)NC(=O)[C@H](NC(=O)[C@@H](Cc1c[nH]c2ccccc12)NC(=O)[C@@H](CCCCN)NC(=O)[C@@H](CC(C)C)NC(=O)[C@H](N)CCCNC(=N)N)C(C)C)C(=O)N[C@H](Cc1c[nH]c2ccccc12)C(=O)N[C@H](CCCNC(=N)N)C(=O)N[C@H](CCCNC(=N)N)C(N)=O [RiLK1(D), RLKWVRIWRR] (HELM PEPTIDE1{[dR].[dL].[dK].[dW].[dV].[dR].[dI].[dW].[dR].[dR].[am]}$$$$V2.0; N-terminus assumed) | Dissolved | 10000 (≈ 6.81 mM) | 10000 (≈ 6.81 mM) | Dissolved | 10000 (≈ 6.81 mM) | –
CC[C@@H](C)[C@@H](NC(=O)[C@@H](CCCNC(=N)N)NC(=O)[C@H](NC(=O)[C@@H](CCCCN)NC(=O)[C@H](NC(=O)[C@H](NC(=O)[C@@H](CC(C)C)NC(=O)[C@@H](CCCNC(=N)N)NC(=O)[C@H](N)C(C)C)[C@H](C)CC)C(C)C)C(C)C)C(=O)N[C@H](Cc1c[nH]c2ccccc12)C(=O)N[C@H](CCCNC(=N)N)C(=O)N[C@H](CCCNC(=N)N)C(N)=O [IDR-1018-K6 (D)] (HELM PEPTIDE1{[dV].[dR].[dL].[dI].[dV].[dK].[dV].[dR].[dI].[dW].[dR].[dR].[am]}$$$$V2.0; N-terminus and C-terminus assumed) | – | 0 | 10000 (≈ 6.28 mM) | NOT dissolved | – | Solubility limit (physchem; pH 7.1): 0 µg/mL
VRLIVKVRIWRR-NH2 (C-terminus assumed) [IDR-1018-K6] | – | – | ≤ 5000 | – | – | MBC (S. aureus): 15 µM; solubility [1]: 1000 µM; peptide concentration in NMR sample (solubility) ([1]; pH 4.4): insoluble; MBC (L. monocytogenes (LM2)): 8 µM; Drop Log CFU/ml ([2]; 25 μM, 6 h): 1.0 Log CFU/ml; post-treatment decrease in the fungal load ([2]; 25 μM, 6 h): 1.0 Log; antimycotic activity in words ([2]; same experimental conditions): low efficiency; MBC (S. typhimurium): 25 µM; MBC (E. coli): 2 µM; Drop Log CFU/ml ([3]; 25 μM, 6 h): 0 Log CFU/ml; post-treatment decrease in the fungal load ([3]; 25 μM, 6 h): 0 Log; antifungal activity in words ([3]; same experimental conditions): not active; solubility (physchem): totally insoluble

— patent publication US20260234187A1, “ANTIMICROBIAL PEPTIDES” (MATERIAS S.R.L., priority 2020, published 2026)
